# Reference: ChEMBL document CHEMBL4270587, “Difuran-substituted quinoxalines as a novel class of PI3Kα H1047R mutant inhibitors: Synthesis, biological evaluation and structure-activity relationship” (Eur J Med Chem, 2018)
# Legend:
# HCT-116 [1] = experiment: Induction of apoptosis in human HCT116 cells assessed as live cells at 25 uM after 24 hrs by Annexin V-FITC/propidium iodide staining based flow cytometry (reference value: 89.89%); type: functional
# HCT-116 [2] = experiment: Induction of apoptosis in human HCT116 cells assessed as increase in active caspase-3 protein expression after 72 hrs by Western blot analysis; type: functional, cell-based
# HCT-116 [3] = experiment: Cell cycle arrest in human HCT116 cells assessed as accumulation at G1 phase at 10 uM after 24 hrs by propidium iodide staining based flow cytometry (reference value: 38.72%); type: functional
# HCT-116 [4] = experiment: Induction of apoptosis in human HCT116 cells assessed as early apoptotic cells at 25 uM after 24 hrs by Annexin V-FITC/propidium iodide staining based flow cytometry (reference value: 2.24%); type: functional
# HCT-116 [5] = experiment: cells; conditions: Homo sapiens, HCT-116, 72 h
# HCT-116 [6] = experiment: Cell cycle arrest in human HCT116 cells assessed as accumulation at G2/M-phase at 10 uM after 24 hrs by propidium iodide staining based flow cytometry (reference value: 31.47%); type: functional
# HCT-116 [7] = experiment: Induction of apoptosis in human HCT116 cells assessed as live cells at 6.25 uM after 24 hrs by Annexin V-FITC/propidium iodide staining based flow cytometry (reference value: 89.89%); type: functional
# HCT-116 [8] = experiment: Induction of apoptosis in human HCT116 cells after 24 hrs by Annexin V-FITC/propidium iodide staining based flow cytometry; type: functional, cell-based
# [9] = target: Phosphatidylinositol 4,5-bisphosphate 3-kinase catalytic subunit beta isoform (Homo sapiens, UniProt P42338); experiment: Inhibition of PI3K-beta (unknown origin) after 40 mins by Kinase-Glo assay
# HCT-116 [10] = experiment: Cell cycle arrest in human HCT116 cells assessed as accumulation at G2/M-phase at 5 uM after 24 hrs by propidium iodide staining based flow cytometry (reference value: 31.47%); type: functional
# HCT-116 [11] = experiment: Induction of apoptosis in human HCT116 cells assessed as late apoptotic cells at 6.25 uM after 24 hrs by Annexin V-FITC/propidium iodide staining based flow cytometry (reference value: 7.2%); type: functional
# HCT-116 [12] = experiment: Induction of apoptosis in human HCT116 cells assessed as necrotic cells at 25 uM after 24 hrs by Annexin V-FITC/propidium iodide staining based flow cytometry (reference value: […]); type: functional
# HCT-116 [13] = experiment: Cell cycle arrest in human HCT116 cells assessed as accumulation at G2/M-phase at 20 uM after 24 hrs by propidium iodide staining based flow cytometry (reference value: 31.47%); type: functional
# HCT-116 [14] = experiment: Induction of apoptosis in human HCT116 cells assessed as live cells at 12.5 uM after 24 hrs by Annexin V-FITC/propidium iodide staining based flow cytometry (reference value: 89.89%); type: functional
# [15] = target: PI3-kinase p110-alpha/p85-alpha (Homo sapiens, UniProt P42336); experiment: Inhibition of recombinant full length PI3K p110alpha/p85alpha (unknown origin) expressed in baculovirus infected sf9 cells using PIP2 as substrate preincubated for 10 mins followed by ATP addition and measured after 45 mins by HTRF assay
# MCF7 = experiment: cells; conditions: Homo sapiens, MCF7, 72 h
# Description: Antiproliferative activity against human MCF7 cells after 72 hrs by CCK8 assay
# [16] = target: PI3-kinase p110-alpha/p85-alpha (Homo sapiens, UniProt P42336, H1047R); experiment: Inhibition of recombinant full length PI3K p85alpha/p110alpha H1047R mutant (unknown origin) expressed in baculovirus infected sf9 cells using PIP2 as substrate preincubated for 10 mins followed by ATP addition and measured after 45 mins by HTRF assay
# HCT-116 [17] = experiment: Induction of apoptosis in human HCT116 cells assessed as increase in active caspase-8 protein expression after 72 hrs by Western blot analysis; type: functional, cell-based
# [18] = Inhibition of mTORC1 (unknown origin); set-up: species or system Homo sapiens
# HCT-116 [19] = experiment: Cell cycle arrest in human HCT116 cells assessed as accumulation at G1 phase after 24 hrs by propidium iodide staining based flow cytometry; type: functional
# HCT-116 [20] = experiment: Induction of apoptosis in human HCT116 cells assessed as increase in active caspase-9 protein expression after 72 hrs by Western blot analysis; type: functional, cell-based
# [21] = target: T1, Phosphatidylinositol 4,5-bisphosphate 3-kinase catalytic subunit delta isoform (Homo sapiens, UniProt O00329); experiment: Inhibition of PI3K-delta (unknown origin) after 40 mins by Kinase-Glo assay
# T1 sequence (O00329 whole entry): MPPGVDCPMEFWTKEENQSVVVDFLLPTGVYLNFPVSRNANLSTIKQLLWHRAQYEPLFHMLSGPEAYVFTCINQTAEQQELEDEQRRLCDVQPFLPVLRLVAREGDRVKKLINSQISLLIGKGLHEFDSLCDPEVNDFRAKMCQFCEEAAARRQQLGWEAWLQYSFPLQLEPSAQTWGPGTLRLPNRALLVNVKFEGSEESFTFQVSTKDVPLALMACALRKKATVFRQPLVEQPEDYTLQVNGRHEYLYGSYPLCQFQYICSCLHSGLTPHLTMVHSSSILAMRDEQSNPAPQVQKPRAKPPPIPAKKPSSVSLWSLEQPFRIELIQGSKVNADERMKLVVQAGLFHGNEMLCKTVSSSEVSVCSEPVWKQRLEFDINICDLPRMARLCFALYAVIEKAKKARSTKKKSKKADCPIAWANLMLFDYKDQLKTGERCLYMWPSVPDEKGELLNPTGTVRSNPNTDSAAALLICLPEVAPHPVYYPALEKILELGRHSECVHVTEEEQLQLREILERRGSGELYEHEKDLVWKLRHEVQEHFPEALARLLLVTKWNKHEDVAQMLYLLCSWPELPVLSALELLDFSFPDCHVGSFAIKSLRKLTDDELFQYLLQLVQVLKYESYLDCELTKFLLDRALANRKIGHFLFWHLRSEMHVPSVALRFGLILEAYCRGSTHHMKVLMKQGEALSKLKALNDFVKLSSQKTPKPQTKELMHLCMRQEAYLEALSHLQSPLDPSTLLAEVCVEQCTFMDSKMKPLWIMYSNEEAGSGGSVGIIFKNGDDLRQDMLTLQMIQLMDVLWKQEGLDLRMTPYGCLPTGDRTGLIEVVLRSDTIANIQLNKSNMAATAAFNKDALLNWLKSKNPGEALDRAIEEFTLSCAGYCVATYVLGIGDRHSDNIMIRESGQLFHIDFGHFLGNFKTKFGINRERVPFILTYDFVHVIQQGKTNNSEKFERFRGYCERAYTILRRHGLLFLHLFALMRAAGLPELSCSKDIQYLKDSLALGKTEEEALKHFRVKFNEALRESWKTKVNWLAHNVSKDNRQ
# HCT-116 [22] = experiment: Induction of apoptosis in human HCT116 cells assessed as early apoptotic cells at 6.25 uM after 24 hrs by Annexin V-FITC/propidium iodide staining based flow cytometry (reference value: 2.24%); type: functional
# HCT-116 [23] = experiment: Cell cycle arrest in human HCT116 cells assessed as accumulation at G1 phase at 20 uM after 24 hrs by propidium iodide staining based flow cytometry (reference value: 38.72%); type: functional
# HCT-116 [24] = experiment: Induction of apoptosis in human HCT116 cells assessed as late apoptotic cells at 12.5 uM after 24 hrs by Annexin V-FITC/propidium iodide staining based flow cytometry (reference value: 7.2%); type: functional
# HCT-116 [25] = experiment: Induction of apoptosis in human HCT116 cells assessed as early apoptotic cells at 12.5 uM after 24 hrs by Annexin V-FITC/propidium iodide staining based flow cytometry (reference value: 2.24%); type: functional
# HCT-116 [26] = experiment: Induction of apoptosis in human HCT116 cells assessed as late apoptotic cells at 25 uM after 24 hrs by Annexin V-FITC/propidium iodide staining based flow cytometry (reference value: 7.2%); type: functional
# HCT-116 [27] = experiment: Cell cycle arrest in human HCT116 cells assessed as accumulation at S-phase at 5 uM after 24 hrs by propidium iodide staining based flow cytometry (reference value: 29.81%); type: functional
# HCT-116 [28] = experiment: Cell cycle arrest in human HCT116 cells assessed as accumulation at G1 phase at 5 uM after 24 hrs by propidium iodide staining based flow cytometry (reference value: 38.72%); type: functional
# HCT-116 [29] = experiment: Cell cycle arrest in human HCT116 cells assessed as accumulation at S-phase at 20 uM after 24 hrs by propidium iodide staining based flow cytometry (reference value: 29.81%); type: functional
# HCT-116 [30] = experiment: Induction of apoptosis in human HCT116 cells assessed as necrotic cells at 12.5 uM after 24 hrs by Annexin V-FITC/propidium iodide staining based flow cytometry (reference value: […]); type: functional
# HCT-116 [31] = experiment: Induction of apoptosis in human HCT116 cells assessed as necrotic cells at 6.25 uM after 24 hrs by Annexin V-FITC/propidium iodide staining based flow cytometry (reference value: […]); type: functional
# HCT-116 [32] = experiment: Cell cycle arrest in human HCT116 cells assessed as accumulation at S-phase at 10 uM after 24 hrs by propidium iodide staining based flow cytometry (reference value: 29.81%); type: functional
# [33] = target: Phosphatidylinositol 4,5-bisphosphate 3-kinase catalytic subunit gamma isoform (Homo sapiens, UniProt P48736); experiment: Inhibition of PI3K-gamma (unknown origin) after 40 mins by Kinase-Glo assay
# Sequence of Phosphatidylinositol 4,5-bisphosphate 3-kinase catalytic subunit gamma isoform (P48736 whole entry, canonical isoform): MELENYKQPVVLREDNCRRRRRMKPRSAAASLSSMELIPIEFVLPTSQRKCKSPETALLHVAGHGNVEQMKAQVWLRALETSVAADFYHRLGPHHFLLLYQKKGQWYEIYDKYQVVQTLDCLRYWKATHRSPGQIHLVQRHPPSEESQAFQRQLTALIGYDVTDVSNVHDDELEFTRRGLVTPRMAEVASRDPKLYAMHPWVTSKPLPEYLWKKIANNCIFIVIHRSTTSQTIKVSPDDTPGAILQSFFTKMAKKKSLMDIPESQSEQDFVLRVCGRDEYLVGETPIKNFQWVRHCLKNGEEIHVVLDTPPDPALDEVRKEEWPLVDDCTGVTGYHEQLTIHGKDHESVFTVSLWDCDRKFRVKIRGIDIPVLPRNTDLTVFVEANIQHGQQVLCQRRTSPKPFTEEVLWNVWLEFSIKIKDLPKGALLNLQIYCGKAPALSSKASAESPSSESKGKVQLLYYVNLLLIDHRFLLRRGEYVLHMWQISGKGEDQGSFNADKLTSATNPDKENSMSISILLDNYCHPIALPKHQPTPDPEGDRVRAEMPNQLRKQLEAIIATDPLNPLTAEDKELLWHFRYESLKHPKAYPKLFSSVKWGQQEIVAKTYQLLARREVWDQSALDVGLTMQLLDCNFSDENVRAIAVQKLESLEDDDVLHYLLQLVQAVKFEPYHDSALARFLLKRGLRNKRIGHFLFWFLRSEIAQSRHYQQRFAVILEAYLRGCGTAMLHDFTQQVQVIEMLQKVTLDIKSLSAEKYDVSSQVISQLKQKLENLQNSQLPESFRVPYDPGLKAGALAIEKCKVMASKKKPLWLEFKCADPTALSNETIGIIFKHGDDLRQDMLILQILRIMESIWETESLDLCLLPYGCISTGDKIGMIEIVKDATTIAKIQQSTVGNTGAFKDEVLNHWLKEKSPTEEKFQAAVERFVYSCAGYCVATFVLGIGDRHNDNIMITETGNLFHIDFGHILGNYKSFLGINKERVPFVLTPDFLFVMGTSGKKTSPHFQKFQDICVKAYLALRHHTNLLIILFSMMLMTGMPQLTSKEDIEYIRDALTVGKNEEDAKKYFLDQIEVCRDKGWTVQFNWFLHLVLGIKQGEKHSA
# Sequence of PI3-kinase p110-alpha/p85-alpha (Homo sapiens, UniProt P42336, H1047R) (P42336 whole entry H1047R, looked up): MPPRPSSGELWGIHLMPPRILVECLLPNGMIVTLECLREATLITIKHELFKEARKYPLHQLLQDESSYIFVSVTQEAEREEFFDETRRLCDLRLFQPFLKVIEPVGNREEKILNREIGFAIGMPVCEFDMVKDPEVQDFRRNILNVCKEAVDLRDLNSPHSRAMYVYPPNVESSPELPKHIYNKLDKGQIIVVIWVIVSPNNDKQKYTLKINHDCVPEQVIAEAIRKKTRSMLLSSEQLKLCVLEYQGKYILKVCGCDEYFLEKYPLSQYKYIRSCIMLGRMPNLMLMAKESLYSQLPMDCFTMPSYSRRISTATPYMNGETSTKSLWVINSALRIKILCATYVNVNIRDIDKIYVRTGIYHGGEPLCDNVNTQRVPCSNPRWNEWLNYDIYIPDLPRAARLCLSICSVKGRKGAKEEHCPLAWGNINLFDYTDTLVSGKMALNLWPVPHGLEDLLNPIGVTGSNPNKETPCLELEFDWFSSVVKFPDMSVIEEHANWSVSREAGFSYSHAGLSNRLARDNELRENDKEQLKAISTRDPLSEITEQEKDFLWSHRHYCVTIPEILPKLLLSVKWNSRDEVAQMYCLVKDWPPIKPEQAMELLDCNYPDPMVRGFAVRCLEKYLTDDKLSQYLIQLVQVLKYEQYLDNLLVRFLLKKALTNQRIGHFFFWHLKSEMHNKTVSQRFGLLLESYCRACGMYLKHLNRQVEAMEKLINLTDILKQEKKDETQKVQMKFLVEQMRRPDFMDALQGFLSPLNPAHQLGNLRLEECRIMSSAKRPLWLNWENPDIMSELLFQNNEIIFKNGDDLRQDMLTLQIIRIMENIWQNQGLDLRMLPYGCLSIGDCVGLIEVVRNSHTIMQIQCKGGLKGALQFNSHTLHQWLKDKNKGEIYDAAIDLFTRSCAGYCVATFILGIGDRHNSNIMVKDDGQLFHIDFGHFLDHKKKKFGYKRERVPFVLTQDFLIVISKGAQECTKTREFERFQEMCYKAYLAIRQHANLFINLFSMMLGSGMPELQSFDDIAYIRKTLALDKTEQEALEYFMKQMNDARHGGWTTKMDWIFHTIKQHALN
# Sequence of Phosphatidylinositol 4,5-bisphosphate 3-kinase catalytic subunit beta isoform (P42338 whole entry, canonical isoform): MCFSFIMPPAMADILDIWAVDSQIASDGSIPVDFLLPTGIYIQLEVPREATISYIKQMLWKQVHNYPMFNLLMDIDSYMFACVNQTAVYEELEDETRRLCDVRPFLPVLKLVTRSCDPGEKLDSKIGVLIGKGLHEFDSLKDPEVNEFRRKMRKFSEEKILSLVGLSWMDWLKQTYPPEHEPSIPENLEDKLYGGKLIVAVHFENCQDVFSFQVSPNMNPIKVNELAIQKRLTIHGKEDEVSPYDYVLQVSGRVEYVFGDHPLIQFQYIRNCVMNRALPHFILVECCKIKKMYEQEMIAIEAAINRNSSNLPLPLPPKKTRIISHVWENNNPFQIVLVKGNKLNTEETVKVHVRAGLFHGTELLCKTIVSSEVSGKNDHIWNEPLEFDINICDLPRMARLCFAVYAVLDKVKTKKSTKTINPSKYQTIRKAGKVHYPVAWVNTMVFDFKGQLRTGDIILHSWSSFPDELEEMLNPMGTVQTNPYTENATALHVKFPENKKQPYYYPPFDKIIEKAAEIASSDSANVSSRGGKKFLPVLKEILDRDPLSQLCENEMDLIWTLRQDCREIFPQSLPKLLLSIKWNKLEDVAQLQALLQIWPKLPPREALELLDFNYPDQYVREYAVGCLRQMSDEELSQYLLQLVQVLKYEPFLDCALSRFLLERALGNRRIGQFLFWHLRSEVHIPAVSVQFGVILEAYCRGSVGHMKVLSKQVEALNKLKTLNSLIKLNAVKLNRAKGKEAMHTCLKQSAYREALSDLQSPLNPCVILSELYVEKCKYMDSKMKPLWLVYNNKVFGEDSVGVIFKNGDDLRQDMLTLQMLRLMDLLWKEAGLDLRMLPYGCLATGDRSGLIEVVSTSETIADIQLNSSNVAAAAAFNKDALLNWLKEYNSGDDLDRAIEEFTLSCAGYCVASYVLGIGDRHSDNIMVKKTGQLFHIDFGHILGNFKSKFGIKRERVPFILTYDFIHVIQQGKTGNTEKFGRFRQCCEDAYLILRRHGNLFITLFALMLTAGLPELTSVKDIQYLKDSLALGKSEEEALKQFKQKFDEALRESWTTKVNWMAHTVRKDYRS
# Sequence of PI3-kinase p110-alpha/p85-alpha (Homo sapiens, UniProt P42336) (P27986 whole entry): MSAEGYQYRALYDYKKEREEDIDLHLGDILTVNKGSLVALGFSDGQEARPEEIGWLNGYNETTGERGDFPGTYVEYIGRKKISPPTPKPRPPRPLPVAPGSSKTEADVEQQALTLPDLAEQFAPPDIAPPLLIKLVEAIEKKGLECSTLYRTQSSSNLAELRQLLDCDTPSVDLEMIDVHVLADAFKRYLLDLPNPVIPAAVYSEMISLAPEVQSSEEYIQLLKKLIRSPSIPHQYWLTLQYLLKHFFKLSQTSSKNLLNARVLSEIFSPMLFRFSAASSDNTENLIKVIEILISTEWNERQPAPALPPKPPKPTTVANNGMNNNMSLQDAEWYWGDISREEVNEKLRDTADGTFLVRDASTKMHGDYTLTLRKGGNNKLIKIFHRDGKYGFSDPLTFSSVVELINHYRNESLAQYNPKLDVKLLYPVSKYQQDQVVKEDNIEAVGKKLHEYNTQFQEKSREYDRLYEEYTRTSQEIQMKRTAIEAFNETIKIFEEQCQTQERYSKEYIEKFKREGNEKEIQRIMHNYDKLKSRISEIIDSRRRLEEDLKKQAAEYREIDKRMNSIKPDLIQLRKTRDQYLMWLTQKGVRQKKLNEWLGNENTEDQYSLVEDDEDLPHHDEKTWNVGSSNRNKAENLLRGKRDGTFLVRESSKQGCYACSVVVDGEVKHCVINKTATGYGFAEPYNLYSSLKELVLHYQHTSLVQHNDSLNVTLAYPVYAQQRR
# Sequence of PI3-kinase p110-alpha/p85-alpha (Homo sapiens, UniProt P42336) (P42336 whole entry): as the sequence (P42336 whole entry H1047R, looked up) above, with R1047H counted along it
compound,measurement,setting,value
Fc1ccccc1-c1cc2nc(-c3ccco3)c(-c3ccco3)nc2cc1Br,Activity,HCT-116 [1],61.38%
same,Activity,HCT-116 [2],Dose-dependent effect
same,Activity,HCT-116 [3],57.67%
same,Activity,HCT-116 [4],13.97%
same,IC50,HCT-116 [5],11.2 µM
same,Activity,HCT-116 [6],20.34%
same,Activity,HCT-116 [7],84.79%
same,Activity,HCT-116 [8],Dose-dependent effect
same,EC50,[9],3.34 µM
same,Activity,HCT-116 [10],32.16%
same,Activity,HCT-116 [11],10.63%
same,Activity,HCT-116 [12],0.88%
same,Activity,HCT-116 [13],11%
same,Activity,HCT-116 [14],80.29%
same,EC50,[15],0.093 µM
same,IC50,MCF7,13.7 µM
same,EC50,[16],0.137 µM
same,Activity,HCT-116 [17],Dose-dependent effect
same,EC50,[18],> 30 µM
same,Activity,HCT-116 [19],Dose-dependent effect
same,Activity,HCT-116 [20],Dose-dependent effect
same,EC50,[21],15.7 µM
same,Activity,HCT-116 [22],3.57%
same,Activity,HCT-116 [23],70.72%
same,Activity,HCT-116 [24],15.72%
same,Activity,HCT-116 [25],3.03%
same,Activity,HCT-116 [26],23.77%
same,Activity,HCT-116 [27],24.42%
same,Activity,HCT-116 [28],44.42%
same,Activity,HCT-116 [29],18.28%
same,Activity,HCT-116 [30],0.96%
same,Activity,HCT-116 [31],1.01%
same,Activity,HCT-116 [32],21.99%
same,EC50,[33],9.89 µM
